Drawing on ChEMBL document CHEMBL3044612, “Design, synthesis and biological evaluation of some novel 3-cinnamoyl-4-hydroxy-2H-chromen-2-ones as antimalarial agents” (Med Chem Res, 2012), this text covers selectivity ratio, IC50 and IC80 for 17 compounds.

Each structure is given as a SMILES string. Values after ≈ are worked out from the molar mass of the structure shown.

A short description of series [1]: Selectivity index, ratio of IC50 for human K562 cells to IC50 for chloroquine-resistant Plasmodium falciparum W2. As to conditions: read-out: Ratio IC50. Format: toxicity, cell-based.
Series [2] is described as follows: Selectivity index, ratio of IC50 for human K562 cells to IC50 for chloroquine-sensitive Plasmodium falciparum 3D7. In kind it is toxicity, cell-based. As to conditions: read-out: Ratio IC50.
Series [3] can be described thus: Selectivity index, ratio of IC50 for human K562 cells to IC80 for chloroquine-sensitive Plasmodium falciparum 3D7. The following applies: read-out: Selectivity Index. In kind it is toxicity, cell-based.
The subject of series [4] is Plasmodium falciparum. The series is described as follows: Antimalarial activity against chloroquine-sensitive Plasmodium falciparum 3D7 by in vitro cell culture method. In kind it is functional, organism-based.
The subject of series [5] is K562. The series is described as follows: Cytotoxicity against Homo sapiens (human) K562 cells by Sulphorhodamine B assay. In kind it is cell-based. In general terms: The SRB assay estimates cell density from bound dye.
The test system of series [6] is Plasmodium falciparum. The series is described as follows: Antimalarial activity against chloroquine-resistant Plasmodium falciparum W2 by in vitro cell culture method. In kind it is functional, organism-based.
The subject of series [7] is Plasmodium falciparum. The series is described as follows: Antimalarial activity against Plasmodium falciparum by [3H]-hypoxanthine incorporation assay. Format: functional, organism-based.

What is called IC50 is the point on the concentration scale where inhibition reaches its midpoint. As usually defined, the IC80 is the concentration needed for an effect of 80%. High values mean a need for much substance, low ones an effect from little substance.

As for `O=C(/C=C/c1ccc([N+](=O)[O-])cc1)c1c(O)c2ccccc2oc1=O`, the selectivity ratio in series [1] was found to be 38.5; in series [2], 49.7; in series [3] it was 22. Also, the IC50 in series [4] came to 3.1 µg/mL (≈ 9.19 µM); in series [5] it was 154 µg/mL (≈ 457 µM); in series [6], 4 µg/mL (≈ 11.9 µM). Moreover, the 80% effect level in series [4] (IC80) was put at 7 µg/mL (≈ 20.8 µM).

As for `COc1cc(/C=C/C(=O)c2c(O)c3ccccc3oc2=O)cc(OC)c1OC`, the IC50 in series [4] was more than 50 µg/mL; in series [5], 103 µg/mL (≈ 270 µM).

In the case of `CN(C)c1ccc(/C=C/C(=O)c2c(O)c3ccccc3oc2=O)cc1`, the selectivity ratio worked out at 2.29 in series [1], 9.1 in series [2] and 7.08 in series [3]. Moreover, the IC50 in series [4] is 17.2 µg/mL (≈ 51.3 µM); in series [5], 156 µg/mL (≈ 467 µM); in series [6], 68.2 µg/mL (≈ 203 µM). The 80% effect level in series [4] (IC80) was put at 22.1 µg/mL (≈ 65.9 µM).

With `O=C(/C=C/c1ccccc1)c1c(O)c2ccccc2oc1=O`, the selectivity ratio in series [1] came out at 9.02; in series [2], 4.49; in series [3], 1.76. For the same compound, the IC50 in series [4] is 22.1 µg/mL (≈ 75.6 µM); in series [5], 99.2 µg/mL (≈ 339 µM); in series [6] it was 11 µg/mL (≈ 37.6 µM). In series [4], this compound displayed an IC80 of 56.3 µg/mL (≈ 193 µM).

In series [4], `COc1ccc(/C=C/C(=O)c2c(O)c3ccccc3oc2=O)cc1` had an IC50 of 7.2 µg/mL (≈ 22.3 µM) and an IC80 of 6.2 µg/mL (≈ 19.2 µM). The compound further returned an IC50 in series [6] of 35.8 µg/mL (≈ 111 µM).

As for `Cc1ccc(/C=C/C(=O)c2c(O)c3ccccc3oc2=O)cc1`, the IC50 was 6.1 µg/mL (≈ 19.9 µM) in series [4] and 5.1 µg/mL (≈ 16.6 µM) in series [6]. This compound also registered an IC80 in series [4] of 15 µg/mL (≈ 49 µM).

For `COc1ccc(/C=C/C(=O)c2c(O)c3ccccc3oc2=O)cc1OC`, the selectivity ratio worked out at 3.25 in series [1], 11.5 in series [2] and 4.73 in series [3]. The results for the IC50 in series [4], in series [5] and in series [6] were 6.2 µg/mL (≈ 17.6 µM), 71.4 µg/mL (≈ 203 µM) and 22 µg/mL (≈ 62.4 µM), respectively. The IC80 in series [4] amounted to 15.1 µg/mL (≈ 42.9 µM).

As to `COc1ccc(/C=C/C(=O)c2c(O)c3ccccc3oc2=O)c(OC)c1OC`, the results for the selectivity ratio in series [1], in series [2] and in series [3] were 0.83, 5.48 and 2.3, respectively. Besides, the values for the IC50 in series [4], in series [5] and in series [6] were 8.5 µg/mL (≈ 22.2 µM), 46.6 µg/mL (≈ 122 µM) and 56.1 µg/mL (≈ 147 µM), respectively. The same compound yielded an IC80 in series [4] of 20.3 µg/mL (≈ 53.1 µM).

The compound `O=C(/C=C/c1ccco1)c1c(O)c2ccccc2oc1=O` showed an IC50 in series [4] of more than 50 µg/mL.

`O=C(/C=C/c1ccccc1Cl)c1c(O)c2ccccc2oc1=O`: the values for the IC50 in series [4] and in series [5] were more than 50 µg/mL and 124 µg/mL (≈ 378 µM), respectively.

Consider `O=C(/C=C/c1cccc(Cl)c1)c1c(O)c2ccccc2oc1=O`, for which the IC50 in series [4] is 4.2 µg/mL (≈ 12.9 µM); in series [6], 6.2 µg/mL (≈ 19 µM). This compound also gave an IC80 in series [4] of 9 µg/mL (≈ 27.5 µM).

Consider `O=C(/C=C/c1ccc(Cl)cc1)c1c(O)c2ccccc2oc1=O`, for which the selectivity ratio in series [1] came out at 4.94; in series [2], 6.29; in series [3] it was 2.26. Further, the IC50 in series [4] was found to be 5.1 µg/mL (≈ 15.6 µM); in series [5], 32.1 µg/mL (≈ 98.2 µM); in series [6] it was 6.5 µg/mL (≈ 19.9 µM). The same compound yielded an IC80 in series [4] of 14.2 µg/mL (≈ 43.5 µM).

As to `O=C(/C=C/c1ccc(Cl)cc1Cl)c1c(O)c2ccccc2oc1=O`, the IC50 in series [4] is more than 50 µg/mL; in series [5], 149 µg/mL (≈ 413 µM).

Regarding `O=C(/C=C/c1cccc([N+](=O)[O-])c1)c1c(O)c2ccccc2oc1=O`, the selectivity ratio in series [1] stood at 2.8; in series [2] it was 9.72; in series [3], 6.02. For the same compound, the IC50 in series [4] turned out to be 15.6 µg/mL (≈ 46.3 µM); in series [5] it was 152 µg/mL (≈ 450 µM); in series [6], 54.1 µg/mL (≈ 160 µM). This compound displayed an IC80 in series [4] of 25.2 µg/mL (≈ 74.7 µM).

In series [4], `COc1cc(/C=C/C(=O)c2c(O)c3ccccc3oc2=O)ccc1O` had an IC50 of 11.2 µg/mL (≈ 33.1 µM) and an IC80 of 27.2 µg/mL (≈ 80.4 µM). Moreover, half-maximal inhibition in series [6] (IC50) required 61.3 µg/mL (≈ 181 µM).

For `CCN(CC)CCCC(C)Nc1ccnc2cc(Cl)ccc12` (stereo unspecified) [CHLOROQUINE], in series [4], the 80% effect level (IC80) was put at 0.0401 µg/mL (≈ 0.125 µM). The same compound returned an IC50 in series [5] of 43.8 µg/mL (≈ 137 µM).

`O=c1ccc2ccc(O)c(O)c2o1` [DAPHNETIN] displayed an IC50 in series [7] of 25 µM. This counts as double-digit micromolar.
